According to patent publication US10398672B2, “Methods and compositions for targeting cancer stem cells” (Whitehead Institute for Biomedical Research, priority 2014, dated 2019):
Read-outs that look alike come from different tables or passages of the source.

Tests used:
NAMEC cells [1] = assay: Treatment of NAMEC cells with cAMP analogs (PKA versus EPAC), morphology; format: cell-based, human; conditions: treatment for 12 days, data not shown
NAMEC cells [2] = format: cell-based, human; conditions: for susceptibility to inhibition by the drug, in contrast to untreated NAMEC cells: NAMEC cells treated with cholera toxin, FIGS. 8A and 8B
HMLE cells = assay: Dose response to chemotherapeutic drugs, HMLE cells; format: cell-based, human; conditions: dose response curves FIGS. 8A and 8B
E-cadherin/CDH1 promoter = format: cell-based, human
NAMEC cells [3] = format: cell-based, human
[4] = 5 mg/kg, previously tested in vivo in mice; cited from earlier work
NAMEC cells [5] = format: cell-based, human; remark: listed apart in the source
NAMEC cells [6] = format: cell-based, human; remark: listed apart in the source
NAMEC cells [7] = format: cell-based, human; remark: listed apart in the source
NAMEC cells [8] = format: cell-based, human; remark: listed apart in the source

Nc1ncnc2c1nc(Br)n2[C@@H]1O[C@@H]2COP(=O)(O)O[C@H]2[C@H]1O [8-Br-cAMP]
epithelial morphologies displayed by NAMEC cells (NAMEC cells [1]): displayed epithelial morphologies

COc1cccc2c1C(=O)c1c(O)c3c(c(O)c1C2=O)C[C@@](O)(C(=O)CO)C[C@@H]3O[C@H]1C[C@H](N)[C@H](O)[C@H](C)O1 [doxorubicin]
susceptibility to inhibition by the drug (NAMEC cells [2]): highly resistant
susceptibility to inhibition by the drug, in contrast to untreated NAMEC cells (NAMEC cells [2]): more susceptible
susceptibility to inhibition by the drug (HMLE cells): susceptible

C=C[C@@]1(C)CC(=O)[C@]2(O)[C@@]3(C)[C@@H](O)CCC(C)(C)[C@@H]3[C@H](O)[C@H](OC(C)=O)[C@@]2(C)O1 [forskolin]
induce transcription of the E-cadherin reporter compared to the control after normalization to cell number (E-cadherin/CDH1 promoter): 40 fold
relative CDH1 Promoter luciferase activity normalized by cells number: differential activity between non-CSCs and CSC (E-cadherin/CDH1 promoter): around 40 fold
cells expressing the SC-like CD44hiCD24lo marker profile reverted to the non-SC CD44loCD24hi profile (NAMEC cells [3]; NAMEC cells, 100 μg/ml cholera toxin or 10 μM forskolin over 12 days, flow cytometry): 95%
toxicities / side-effects in mice [4]: no reported side-effects

CC(=O)O[C@H]1C(=O)[C@@]2(C)[C@H]([C@H](OC(=O)c3ccccc3)[C@]3(O)C[C@H](OC(=O)[C@H](O)[C@@H](NC(=O)c4ccccc4)c4ccccc4)C(C)=C1C3(C)C)[C@]1(OC(C)=O)CO[C@@H]1C[C@@H]2O [paclitaxel]
susceptibility to inhibition by the drug (NAMEC cells [2]): highly resistant
susceptibility to inhibition by the drug, in contrast to untreated NAMEC cells (NAMEC cells [2]): more susceptible
susceptibility to inhibition by the drug (HMLE cells): susceptible

cholera toxin
ability to induce luciferase expression (validation of the screen) (E-cadherin/CDH1 promoter): induce luciferase expression
E-cadherin expression compared to untreated NAMEC cells (NAMEC cells [5]): gain of E-cadherin expression
relative expression of mesenchymal markers compared to untreated NAMEC cells (NAMEC cells [5]): decrease
invasive properties of NAMEC cells (NAMEC cells [6]): loss
migratory properties of NAMEC cells (NAMEC cells [6]): loss
cell morphology after treatment (NAMEC cells [3]): cobblestone-like epithelial morphology
cells expressing the SC-like CD44hiCD24lo marker profile reverted to the non-SC CD44loCD24hi profile (NAMEC cells [3]): 95%
junctional E-cadherin by fluorescent microscopy (NAMEC cells [3]): expressed junctional E-cadherin
mesenchymal marker fibronectin by fluorescence microscopy (NAMEC cells [3]): loss of the mesenchymal marker, fibronectin
intracellular cAMP concentration in NAMEC cells (NAMEC cells [7]): elevated
susceptibility of NAMEC cells to doxorubicin and paclitaxel after induction of MET (NAMEC cells [2]): more susceptible
mammosphere-forming ability (NAMEC cells [8]): complete loss
